Paper PMC11788587, “Validating Low‐Dose Iohexol as a Marker for Glomerular Filtration Rate by In Vitro and In Vivo Studies” (Clinical and Translational Science, 2025)

What was measured:
hOCT1 = target: T1, hOCT1 (Homo sapiens, UniProt O15245); assay: Inhibition of hOCT1-mediated metformin uptake, stably transfected 293 cells; format: cell-based; details: substrate 50 µM metformin, median (95% CI)
T1 construct: expressed in transfected cells; host or cells: HEK-293 (293) cells, pEBTetD plasmid, doxycycline-induced
T1 sequence (O15245 1-554): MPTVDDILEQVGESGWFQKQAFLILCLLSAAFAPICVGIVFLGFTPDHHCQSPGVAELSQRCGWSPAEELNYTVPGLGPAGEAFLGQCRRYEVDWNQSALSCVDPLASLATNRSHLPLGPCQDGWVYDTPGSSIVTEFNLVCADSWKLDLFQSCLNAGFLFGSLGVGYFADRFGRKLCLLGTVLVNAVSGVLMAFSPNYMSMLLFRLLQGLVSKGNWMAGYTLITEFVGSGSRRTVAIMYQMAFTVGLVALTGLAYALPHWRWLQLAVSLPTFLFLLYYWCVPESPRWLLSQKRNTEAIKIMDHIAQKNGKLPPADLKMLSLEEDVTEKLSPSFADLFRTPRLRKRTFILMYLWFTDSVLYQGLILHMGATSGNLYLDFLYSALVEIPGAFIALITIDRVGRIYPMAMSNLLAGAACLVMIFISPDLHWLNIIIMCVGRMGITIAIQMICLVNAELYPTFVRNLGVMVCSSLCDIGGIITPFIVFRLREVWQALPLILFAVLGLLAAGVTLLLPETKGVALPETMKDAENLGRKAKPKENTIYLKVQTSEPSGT
Excerpt: (§1) We characterized the inhibitory potential of iohexol on major drug transporters recommended by regulatory agencies, which were previously assessed in a clinical transporter phenotyping cocktail study. These transporters include hOAT1, hOAT3, hOCT1, hOCT2, hMATE1, hMATE2K, human organic anion transporter polypeptides (hOATP)1B1, hOATP1B3, and human multidrug resistance protein (hMDR)1. Additionally, we investigated whether iohexol is a substrate for any of the renal transporters among these, including hOAT1/3, hOCT1/2, and hMATE1/2K. Cell‐based uptake assays were used to assess the activities of hOAT1/3, hOCT1/2, hMATE1/2K, and hOATP1B1/1B3. Inside‐out membrane vesicle uptake assays were used to evaluate the activity of hMDR1.
(§2) To determine the maximal inhibitory potential of iohexol, intracellular accumulation of a standard substrate was measured with and without the clinically relevant highest concentrations of iohexol. Control inhibitors were tested in each experiment.
(§3) In all subsequent in vitro studies, control experiments were conducted to validate the results. These included positive controls for substrates and inhibitors, as well as cells either without transporter expression or transfected with an empty vector, and control vesicles. Each condition, including cells or vesicles with the transporter and their respective controls, was analyzed in at least three replicates. For detailed information on materials, methods, and data analysis techniques used, refer to the Supporting Information. […]
(§4) R version 4.2.1 (R Foundation for Statistical Computing, Vienna, Austria) was used for statistical evaluations and data visualization. The data analysis approach for the in vitro study was detailed by Hsin CH et al..^1 In brief, for transport assays, the initial uptake rate was calculated by normalizing the substrate concentration to both the protein concentration and the incubation time for each dish or well. The transporter-mediated uptake rate (net uptake) was determined by performing an element-wise subtraction of uptake rates from different conditions. […]

hMATE2K = target: T2, hMATE2K (Homo sapiens, UniProt Q86VL8); assay: Inhibition of hMATE2K-mediated MPP+ uptake, stably transfected 293 cells; format: cell-based; details: substrate 3 µM MPP+, median (95% CI)
T2 construct: expressed in transfected cells; host or cells: HEK-293 (293) cells, pEBTetD plasmid, doxycycline-induced
Excerpt: as §1, §2, §3, §4

[1] = tested on: hOAT1/3, hOCT1/2, hMATE1/2K, hOATP1B1/3, and hMDR1; assay: Inhibition assays, summary across all transporters; format: cell-based, human
Excerpt: as §1, §2
According to guidelines for assessing TDDIs after intravenous administration, the highest test concentration should be up to 50 times the unbound maximal plasma concentration (Cmax). […]
In all subsequent in vitro studies, control experiments were conducted to validate the results. […] Each condition, including cells or vesicles with the transporter and their respective controls, was analyzed in at least three replicates. […]

[2] = cited from earlier work
[3] = tested on: human Phase I or Phase II enzymes; design: method as in PMID 32948918; details: cited from earlier work
[4] = HEK293, 1 mM iohexol, read-out: Inhibitory effect (% reduction of specific activity)
[5] = HEK293, 20 mM iohexol, read-out: Inhibitory effect (% reduction of specific activity)

T2 sequence (Q86VL8 1-566 isoform Q86VL8-3): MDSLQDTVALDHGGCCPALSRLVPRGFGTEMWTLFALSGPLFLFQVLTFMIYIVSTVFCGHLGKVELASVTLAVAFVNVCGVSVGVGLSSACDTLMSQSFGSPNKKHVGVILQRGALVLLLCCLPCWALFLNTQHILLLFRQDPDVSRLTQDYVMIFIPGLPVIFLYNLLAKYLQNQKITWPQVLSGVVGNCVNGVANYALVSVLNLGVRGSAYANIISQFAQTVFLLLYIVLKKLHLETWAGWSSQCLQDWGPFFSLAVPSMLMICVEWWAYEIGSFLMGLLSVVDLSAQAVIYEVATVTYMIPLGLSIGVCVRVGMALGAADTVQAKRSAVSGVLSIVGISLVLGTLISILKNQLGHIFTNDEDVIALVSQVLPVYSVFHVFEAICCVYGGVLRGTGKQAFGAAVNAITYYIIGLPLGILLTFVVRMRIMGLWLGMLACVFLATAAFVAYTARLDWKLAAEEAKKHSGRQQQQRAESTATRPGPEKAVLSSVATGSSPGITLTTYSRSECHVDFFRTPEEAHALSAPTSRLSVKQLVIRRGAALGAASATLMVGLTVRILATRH

Inhibitory effect (% reduction of specific activity) (hOCT1; 20 mM iohexol): no notable inhibitory effects | inhibition at 1000 µM (hOCT1; [4]): -9.8% | inhibition at 20000 µM (hOCT1; [5]): -22% | Inhibitory effect (% reduction of specific activity) (hMATE2K; 20 mM iohexol): < 30% | inhibition at 1000 µM (hMATE2K; [4]): 14% | inhibition at 20000 µM (hMATE2K; [5]): 26%
SMILES: CC(=O)N(CC(O)CO)c1c(I)c(C(=O)NCC(O)CO)c(I)c(C(=O)NCC(O)CO)c1I (stereo not drawn) [iohexol]
Inhibitor of the transporters (conclusion) ([1]; in vitro, 1–20 mM iohexol): neither a substrate nor a significant inhibitor | Inhibitory effect on transporter-mediated uptake of standard substrates ([1]; iohexol 1 mM and 2 mM): no significant inhibitory effect | Iohexol clearance ([2]; healthy adults, 95% CI 7.08–7.68 L/h, ref 44 Olsson et al.): 7.32 L/h | Median renal clearance ([2]; healthy adults, interquartile range 6.36–7.50, ref 39 Sterner et al.): 6.78 L/h/1.73 m^2 | Volume of distribution ([2]; healthy volunteers): 0.27 L/kg | Inhibition of human Phase I or Phase II enzymes [3]: does not inhibit
